Measurements reported in patent US20230075856A1, “CYCLIC SULFAMIDE COMPOUNDS FOR TREATMENT OF HBV” (Assembly Biosciences, Inc., priority 2018, published 2023).
Where two headings read alike, the source gives them in different places.

Test system: HBV viral load production from HepAD38 cells
Assay: Viral production from HepAD38 cells: viral load in supernatant by qPCR of the HBV core sequence
Type: cell-based
Details: 5 days incubation, qPCR of supernatant HBV DNA vs DMSO control, read-out: viral load lowering EC50 (Activity)
Outline: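 HepAD38 cells seeded at 50,000/well in tetracycline-free medium with 2% FBS, treated with compounds (final top concentration 10 μM) for 5 days at 37 °C. Supernatant HBV DNA quantified by TaqMan qPCR of core sequence against HBV DNA standards, relative to DMSO controls; EC50 by four-parameter logistic fit.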

[1] = Hepatitis B virus, HePAD38, 120 h

SMILES	EC50 [1]	EC50
CN1C(C(=O)Nc2ccc(F)c(Cl)c2)CC(C(=O)NCC2CCCCC2)NS1(=O)=O (single isomer, unassigned) [1160-ISOMER-A, N3-(3-chloro-4-fluoro-phenyl)-N5-(cyclohexylmethyl)-2-methyl-1,1-dioxo-1,2,6-thiadiazinane-3,5-dicarboxamide]	50 to 100 nM	–
CN1C(C(=O)Nc2ccc(F)c(Cl)c2)CC(C(=O)NCC2CCCCC2)NS1(=O)=O (single isomer, unassigned) [1160-ISOMER-B, N3-(3-chloro-4-fluoro-phenyl)-N5-(cyclohexylmethyl)-2-methyl-1,1-dioxo-1,2,6-thiadiazinane-3,5-dicarboxamide]	–	100 to 10000 nM
CN(C)CCCCc1cnn(-c2ncc(CNC(=O)C3CC(C(=O)Nc4ccc(F)c(Cl)c4)N(C)S(=O)(=O)N3)s2)c1 (single isomer, unassigned) [1197-ISOMER-A, N3-(3-chloro-4-fluoro-phenyl)-N5-[[2-[4-[4-(dimethylamino)butyl]pyrazol-1-yl]thiazol-5-yl]methyl]-2-methyl-1,1-dioxo-1,2,6-thiadiazinane-3,5-dicarboxamide]	100 to 10000 nM	–
CN(C)CCCCc1cnn(-c2ncc(CNC(=O)C3CC(C(=O)Nc4ccc(F)c(Cl)c4)N(C)S(=O)(=O)N3)s2)c1 (single isomer, unassigned) [1197-ISOMER-B, N3-(3-chloro-4-fluoro-phenyl)-N5-[[2-[4-[4-(dimethylamino)butyl]pyrazol-1-yl]thiazol-5-yl]methyl]-2-methyl-1,1-dioxo-1,2,6-thiadiazinane-3,5-dicarboxamide]	–	50 to 100 nM
CN1C(C(=O)Nc2ccc(F)c(Cl)c2)CC(C(=O)NCc2cnc(Cl)s2)NS1(=O)=O (single isomer, unassigned) [1199-ISOMER-A, N3-(3-chloro-4-fluoro-phenyl)-N5-[(2-chlorothiazol-5-yl)methyl]-2-methyl-1,1-dioxo-1,2,6-thiadiazinane-3,5-dicarboxamide]	< 50 nM	–
CN1C(C(=O)Nc2ccc(F)c(Cl)c2)CC(C(=O)NCc2cnc(Cl)s2)NS1(=O)=O (single isomer, unassigned) [1199-ISOMER-B, N3-(3-chloro-4-fluoro-phenyl)-N5-[(2-chlorothiazol-5-yl)methyl]-2-methyl-1,1-dioxo-1,2,6-thiadiazinane-3,5-dicarboxamide]	–	100 to 10000 nM
CN1C(C(=O)Nc2ccc(F)c(Cl)c2)CC(C(=O)NCc2nc(C(F)(F)F)cs2)NS1(=O)=O (single isomer, unassigned) [1202-ISOMER-A, N3-(3-chloro-4-fluoro-phenyl)-2-methyl-1,1-dioxo-N5-[[4-(trifluoromethyl)thiazol-2-yl]methyl]-1,2,6-thiadiazinane-3,5-dicarboxamide]	100 to 10000 nM	–
CN1C(C(=O)Nc2ccc(F)c(Cl)c2)CC(C(=O)NCc2nc(C(F)(F)F)cs2)NS1(=O)=O (single isomer, unassigned) [1202-ISOMER-B, N3-(3-chloro-4-fluoro-phenyl)-2-methyl-1,1-dioxo-N5-[[4-(trifluoromethyl)thiazol-2-yl]methyl]-1,2,6-thiadiazinane-3,5-dicarboxamide]	–	< 50 nM
COC(=O)N1CCC(NC(=O)C2CC(C(=O)Nc3ccc(F)c(Cl)c3)N(C)S(=O)(=O)N2)CC1 (single isomer, unassigned) [Compound 477-ISOMER-A, methyl 4-[[5-[(3-chloro-4-fluoro-phenyl)carbamoyl]-6-methyl-1,1-dioxo-1,2,6-thiadiazinane-3-carbonyl]amino]piperidine-1-carboxylate]	< 50 nM	–
COC(=O)N1CCC(NC(=O)C2CC(C(=O)Nc3ccc(F)c(Cl)c3)N(C)S(=O)(=O)N2)CC1 (single isomer, unassigned) [Compound 477-ISOMER-B, methyl 4-[[5-[(3-chloro-4-fluoro-phenyl)carbamoyl]-6-methyl-1,1-dioxo-1,2,6-thiadiazinane-3-carbonyl]amino]piperidine-1-carboxylate]	–	100 to 10000 nM
Cc1cc(CNC(=O)C2CC(C(=O)Nc3ccc(F)c(Cl)c3)N(C)S(=O)(=O)N2)n(C)n1 (single isomer, unassigned) [Compound 482-ISOMER-A, N3-(3-chloro-4-fluoro-phenyl)-N5-[(2,5-dimethylpyrazol-3-yl)methyl]-2-methyl-1,1-dioxo-1,2,6-thiadiazinane-3,5-dicarboxamide]	< 50 nM	–
Cc1cc(CNC(=O)C2CC(C(=O)Nc3ccc(F)c(Cl)c3)N(C)S(=O)(=O)N2)n(C)n1 (single isomer, unassigned) [Compound 482-ISOMER-B, N3-(3-chloro-4-fluoro-phenyl)-N5-[(2,5-dimethylpyrazol-3-yl)methyl]-2-methyl-1,1-dioxo-1,2,6-thiadiazinane-3,5-dicarboxamide]	–	100 to 10000 nM
C[C@@H](NC(=O)C1CC(C(=O)Nc2ccc(F)c(Cl)c2)N(C)S(=O)(=O)N1)c1ccc(F)cc1 (single isomer, unassigned) [Compound 493-R]	< 50 nM	–
Cc1ncc(CNC(=O)C2CC(C(=O)Nc3ccc(F)c(Cl)c3)N(C)S(=O)(=O)N2)s1 (single isomer, unassigned) [Compound 495-ISOMER-B, N3-(3-chloro-4-fluoro-phenyl)-2-methyl-N5-[(2-methylthiazol-5-yl)methyl]-1,1-dioxo-1,2,6-thiadiazinane-3,5-dicarboxamide]	< 50 nM	–
CN1C(C(=O)Nc2ccc(F)c(Cl)c2)CC(C(=O)NCc2cnc(C(F)(F)F)s2)NS1(=O)=O (single isomer, unassigned) [Compound 498-ISOMER-A, N3-(3-chloro-4-fluoro-phenyl)-2-methyl-1,1-dioxo-N5-[[2-(trifluoromethyl)thiazol-5-yl]methyl]-1,2,6-thiadiazinane-3,5-dicarboxamide]	100 to 10000 nM	–
CN1C(C(=O)Nc2ccc(F)c(Cl)c2)CC(C(=O)NCc2cnc(C(F)(F)F)s2)NS1(=O)=O (single isomer, unassigned) [Compound 498-ISOMER-B, N3-(3-chloro-4-fluoro-phenyl)-2-methyl-1,1-dioxo-N5-[[2-(trifluoromethyl)thiazol-5-yl]methyl]-1,2,6-thiadiazinane-3,5-dicarboxamide]	–	50 to 100 nM
Cc1csc(CNC(=O)C2CC(C(=O)Nc3ccc(F)c(Cl)c3)N(C)S(=O)(=O)N2)n1 (single isomer, unassigned) [Compound 686-ISOMER-A, N3-(3-chloro-4-fluoro-phenyl)-2-methyl-N5-[(4-methylthiazol-2-yl)methyl]-1,1-dioxo-1,2,6-thiadiazinane-3,5-dicarboxamide]	100 to 10000 nM	–
Cc1csc(CNC(=O)C2CC(C(=O)Nc3ccc(F)c(Cl)c3)N(C)S(=O)(=O)N2)n1 (single isomer, unassigned) [Compound 686-ISOMER-B, N3-(3-chloro-4-fluoro-phenyl)-2-methyl-N5-[(4-methylthiazol-2-yl)methyl]-1,1-dioxo-1,2,6-thiadiazinane-3,5-dicarboxamide]	–	< 50 nM
Cc1cnc(CNC(=O)C2CC(C(=O)Nc3ccc(F)c(Cl)c3)N(C)S(=O)(=O)N2)s1 (single isomer, unassigned) [Compound 687-ISOMER-A, N3-(3-chloro-4-fluoro-phenyl)-2-methyl-N5-[(5-methylthiazol-2-yl)methyl]-1,1-dioxo-1,2,6-thiadiazinane-3,5-dicarboxamide]	100 to 10000 nM	–
Cc1cnc(CNC(=O)C2CC(C(=O)Nc3ccc(F)c(Cl)c3)N(C)S(=O)(=O)N2)s1 (single isomer, unassigned) [Compound 687-ISOMER-B, N3-(3-chloro-4-fluoro-phenyl)-2-methyl-N5-[(5-methylthiazol-2-yl)methyl]-1,1-dioxo-1,2,6-thiadiazinane-3,5-dicarboxamide]	–	< 50 nM
CN1C(C(=O)Nc2ccc(F)c(Cl)c2)CC(C(=O)NCc2nc3ccccc3s2)NS1(=O)=O (single isomer, unassigned) [Compound 689-ISOMER-A, N5-(1,3-benzothiazol-2-ylmethyl)-N3-(3-chloro-4-fluoro-phenyl)-2-methyl-1,1-dioxo-1,2,6-thiadiazinane-3,5-dicarboxamide]	100 to 10000 nM	–
CN1C(C(=O)Nc2ccc(F)c(Cl)c2)CC(C(=O)NCc2nc3ccccc3s2)NS1(=O)=O (single isomer, unassigned) [Compound 689-ISOMER-B, N5-(1,3-benzothiazol-2-ylmethyl)-N3-(3-chloro-4-fluoro-phenyl)-2-methyl-1,1-dioxo-1,2,6-thiadiazinane-3,5-dicarboxamide]	–	< 50 nM
CN1C(C(=O)Nc2ccc(F)c(Cl)c2)CC(C(=O)NCc2cnc(-c3ccccc3)s2)NS1(=O)=O (single isomer, unassigned) [Compound 691-ISOMER-A, N3-(3-chloro-4-fluoro-phenyl)-2-methyl-1,1-dioxo-N5-[(2-phenylthiazol-5-yl)methyl]-1,2,6-thiadiazinane-3,5-dicarboxamide]	100 to 10000 nM	–
CN1C(C(=O)Nc2ccc(F)c(Cl)c2)CC(C(=O)NCc2cnc(-c3ccccc3)s2)NS1(=O)=O (single isomer, unassigned) [Compound 691-ISOMER-B, N3-(3-chloro-4-fluoro-phenyl)-2-methyl-1,1-dioxo-N5-[(2-phenylthiazol-5-yl)methyl]-1,2,6-thiadiazinane-3,5-dicarboxamide]	–	< 50 nM
Cc1cccc(CNC(=O)C2CC(C(=O)Nc3ccc(F)c(Cl)c3)N(C)S(=O)(=O)N2)n1 (single isomer, unassigned) [Compound 716-ISOMER-A, N3-(3-chloro-4-fluoro-phenyl)-2-methyl-N5-[(6-methyl-2-pyridyl)methyl]-1,1-dioxo-1,2,6-thiadiazinane-3,5-dicarboxamide]	< 50 nM	–
COc1ccc(CNC(=O)C2CC(C(=O)Nc3ccc(F)c(Cl)c3)N(C)S(=O)(=O)N2)cc1 (single isomer, unassigned) [Compound 717-ISOMER-A, N3-(3-chloro-4-fluoro-phenyl)-N5-[(4-methoxyphenyl)methyl]-2-methyl-1,1-dioxo-1,2,6-thiadiazinane-3,5-dicarboxamide]	< 50 nM	–
